Consider 22 compounds from patent US5183828A, “Polyhydroxybenzoic acid derivatives” (priority 1990, dated 1993).

One may read the ILS as how much longer treated animals lived than controls. High values mean much gain in survival, low ones little gain in survival.

Counter-ions that a name gives are not always drawn.

One test relates to L1210. Briefly: antileukemia activity of nitriles vs L1210, Table 8. Type of test: in vivo. The text has this: Table 8 which follows gives anti-tumor data vs L-1210 and P-388 leukemia for these novel nitriles.
Test [1] has as its system superoxide (xanthine oxidase reaction or human leukocytes). Description: effect on superoxide generation in vitro. The format is biochemical. How it is done:
The rate of production of superoxide from the xanthine oxidase reaction or from human leukocytes activated with phorbol myristate acetate was measured spectrophotometrically as the superoxide dismutase (SOD)-inhibitable portion of the reduction of ferricytochrome c or nitroblue tetrazolium (NBT). All assays were carried out at 37° C., pH 7.1. For the superoxide production by the xanthine oxidase reaction, a concentration of 0.04 U/ml of xanthine oxidase was used with 0.1 mM xanthine as substrate. Absorbances were measured in the presence of 30 U/ml of SOD and in its absence. The indicators were either ferricytochrome c or NBT in a concentration of 20 uM. The initial rate of reduction of NBT was monitored at 530 nm and that of cytochrome c at 550 nm. Extinction coefficients were 21.4×10 ^3 /M cm for cytochrome c and 17.9×10^3 /M cm for NBT. The initial rate of production of superoxide from leukocytes was measured using a concentration of 20 uM ferricytochrome c or NBT as described above in the presence and absence of 30 U/ml of SOD.

A further test addresses ribonucleotide reductase. Description: ribonucleotide reductase inhibition (conversion of CDP to dCDP), Table 1. The format is biochemical. The conditions noted are these: enzyme partially purified from HeLa cells or Ehrlich ascites cells; 40 min, 30° C; read-out: ID50 (inhibitory dose which inhibits ribonucleotide reductase by 50%). The source says:
Compounds represented by formula I above have the ability to inhibit ribonucleotide reductase, an enzyme involved in the reductive conversion of ribonucleotides to deoxyribonucleotides. This enzymatic reaction is a rate controlling step in the biosynthetic pathway leading to DNA and cell replication. In general, the ribonucleotide reductase level is closely correlated with cellular replication. […] In addition, the compounds have shown activity against P388 leukemia and B16 melanoma.
The results of biological tests of compounds according to formula I are incorporated in a series of Tables which follow. Table 1 gives ribonucleotide reductase data for representative compounds of formula I. In the table, column 1 gives the substitution pattern in the benzene- ring, column 2, the (CHR")m group, column 3, the [drawing 5] group, and column 4, the ID50 (inhibitory dose in micromolar concentration which inhibits ribonucleotide reductase by 50%) in μmoles.
In the above determination of ID50 's in Table 1, ribonucleotide reductase is partially purified from HeLa cells or Ehrlich ascites cells by a procedure similar to that set forth by Elford et al. J. Biol. Chem., 245, 5228 (1970). The activity of the enzyme was measured by a slightly modified assay procedure originally developed by Reichard et al. id, 236, 1150 (1969). This procedure measures the conversion of CDP to dCDP. The assay mixture (0.34 ml.) contains 3 μCi of [^3 H] CDP (specific activity […]), 3.3 μmole ATP, 5.9 μmoles magnesium chloride, 8.8 μmoles Hepes buffer at pH=7.5, 15 μmoles dithiothreitol and enzyme protein between 0.4 and 1.3 mg. Incubation was provided for forty minutes at 30° C. Ion exchange chromatography employing Dowex 50 (H^+) resin is used to separate the product from the substrate. The inhibitors were dissolved in water and a mixture of water and up to 1% ethanol or 2% dimethylsulfoxide, neither one of which inhibited the enzyme at these concentrations. Each inhibitor was tested at a minimum of three concentrations and the active compounds reassayed at least one additional time. ID50 's (μmolar) were estimate from graphs summarizing results for each compound.

In the next test the test system is L1210 leukemia. Description: antitumor activity in L1210 leukemia (percent increase in survival time), Table 2. The format is in vivo, mice. The conditions noted are these: 8 days; for ILS at 200 mg/kg: 200 mg/kg ip daily; for ILS at 100 mg/kg: 100 mg/kg ip daily. How it is done:
Testing of the compounds of this invention against L-1210 lymphoid leukemia were carried out as follows: L-1210 leukemia was maintained by weekly passage of 10^5 L-1210 cells intraperitoneally into DBA/2 mice. Diluted ascitic fluid, 0.1 ml. (10^5 cells), was administered ip to female B6D2 F1 mice weighing about 20 g. Drugs were administered ip 24 hours after tumor transplantation and injections were continued daily for a total of eight days. A group of control mice receiving only the injection medium were maintained. Table 2 which follows gives the antitumor activity against L-1210 leukemia for certain compounds of this invention. In the table, column 1 gives the name of the compound, column 2 the dose in mg./kg., and column 3 the percent increase in survival time over controls at each dose level.

Test [2] in a line: free radical scavenging ability (destruction of diphenylpicrylhydrazyl), Table 7. The conditions noted are these: 100 μM diphenylpicrylhydrazyl in acetone; test compound 25 μM, 2.5 μM (footnote). The source says: It is believed that the antineoplastic activity of the compounds of this invention is due in parts to their ability to scavenge free-radicals. Additionally, the compounds of this invention are cancer protective agents and this utility also may be a manifestation of their free-radical scavenging capability. Free-radical scavenging agents may also be useful in detoxifying mammals in whom an excess of free radicals is a cause and/or result of the toxicity. Other possible uses of free radical scavengers are to inhibit protaglandin transformation, leucotriene interconversion and lipogenesis, to act as inflammatory modulators and as food additive or preservatives to prevent lipid oxidation. The free radical scavenging ability of the compounds of the invention was determined by measuring the destruction of the stable free radical, diphenylpicrylhydrazyl, in the presence of the test compound in a manner similar to that reported by […] and Herzmann, Naturwiss, 47, 133-134 (1960). […] The test compound was added at a final concentration of 25 μM and the rate of reduction of absorpotion at […] was observed. Table 7 below gives the free radical scavenging abilities of the compounds of this invention expresses as the initial rate of decrease in optical density units/min.

Setting [3] is: Mus musculus, L1210, 192 h, 300 mg/kg ip daily.

Consider `N#Cc1ccc(O)c(O)c1` [3,4-dihydroxybenzonitrile], for which the entries for the “% Increase in Survival Time” value in the test with L1210 (47.6 mg/kg), in the test with L1210 (95.2 mg/kg) and with L1210 (196 mg/kg) were 4.7%, 15.6% and “Toxic”, respectively.
As to 3,4,5-TRIHYDROXYBENZAMIDATE, the “Cytochrome C Reduction” value stood at 4.89 nmol in test [1] (10 uM compound), 3.21 nmol in test [1] (20 uM compound), 2.22 nmol in test [1] (50 uM compound) and 1.91 nmol in test [1] (100 uM compound). In addition, the “NBT Reduction” value in test [1] (10 uM compound) amounted to 7.60 nmol; in test [1] (20 uM compound), 6.10 nmol; in test [1] (50 uM compound) it was 3.67 nmol; in test [1] (100 uM compound), 1.78 nmol; in test [1] (200 uM compound), 1.45 nmol; in test [1] (500 uM compound), 1.23 nmol.
With `ON=C(NO)c1ccc(O)c(O)c1` [drawing 11], the IC50 at ribonucleotide reductase was found to be 40 µM.
The compound `ON=C(NO)c1ccc(O)c(O)c1` [3,4-dihydroxybenzohydroxyamidoxime-HCl, 3,4-Dihydroxybenzohydroxyamidoxime hydrochloride] returned an ILS at 155 mg/kg in the test with L1210 leukemia (Mus musculus, L1210, 192 h, 155 mg/kg ip daily) of 39%. Also, the ILS at 200 mg/kg with L1210 leukemia (Mus musculus, L1210, 192 h) is 47.8%. Moreover, the ILS at 300 mg/kg in the test with L1210 leukemia (setting [3]) worked out at 41.3%.
In the case of `N=C(N)c1ccc(O)c(O)c1` [drawing 10], at ribonucleotide reductase, the IC50 was 20 µM.
Same read-out and setting: to `N=C(N)c1cc(O)c(O)c(O)c1` [drawing 14] belongs 25 µM; to `CCOC(=N)c1cc(O)c(O)c(O)c1` [drawing 13], 15 µM; to `NC(=NO)c1ccc(O)c(O)c1O` [drawing 17], 7 µM.
`N#Cc1c(O)c(O)c(O)c(O)c1O` [pentahydroxybenzonitrile]: the “% Increase in Survival Time” value is reported as 14.2% with L1210 (34.3 mg/kg), 0% with L1210 (51.5 mg/kg), “Toxic” with L1210 (77.2 mg/kg) and “Toxic” in the test on L1210 (116.0 mg/kg).
In the case of `ON=C(NO)c1cc(O)c(O)c(O)c1` [drawing 16], at ribonucleotide reductase, the IC50 is 25 µM.
`Cl.N=C(N)c1ccc(O)c(O)c1` [3,4-dihydroxybenzamidine-HCl]: the “initial rate of decrease in optical density (518 nm)” value (“initial rate of decrease” for short) in test [2] was determined as 1.721 units/min. Besides, in the test with L1210 leukemia (Mus musculus, L1210, 192 h, 52 mg/kg ip daily), the ILS at 52 mg/kg was determined as 26.8%. Moreover, in the test on L1210 leukemia (Mus musculus, L1210, 192 h), the ILS at 100 mg/kg came to 58.3% and the ILS at 200 mg/kg was determined as 41.7%. Further, the ILS at 104 mg/kg with L1210 leukemia (Mus musculus, L1210, 192 h, 104 mg/kg ip daily) turned out to be 34.1%. The ILS at 300 mg/kg in the test with L1210 leukemia (setting [3]) is 47.2%. The compound further displayed an ILS at 400 mg/kg with L1210 leukemia (Mus musculus, L1210, 192 h, 400 mg/kg ip daily) of 47.8%. Further, in the test with L1210 leukemia (Mus musculus, L1210, 192 h, 603 mg/kg ip daily), the ILS at 603 mg/kg worked out at 83%.
As to `N#Cc1cc(O)c(O)c(O)c1O` [2,3,4,5-tetrahydroxybenzonitrile], the “% Increase in Survival Time” value in the test with L1210 (163 mg/kg) was 48.4%; in the test with L1210 (230 mg/kg), “Toxic”.
As to `CCOC(=N)c1ccc(O)c(O)c1` [drawing 9], the IC50 on ribonucleotide reductase turned out to be 12 µM.
Regarding `NC(=NO)c1ccc(O)c(O)c1O` [2,3,4-trihydroxybenzamidoxime-HCl, 2,3,4-trihydroxybenzamidoxime], in the test on L1210 leukemia (300 mg/kg ip daily), the “% Increase in Survival Time” value was “toxic”. For the same compound, in the test with L1210 leukemia (Mus musculus, L1210, 192 h), the ILS at 100 mg/kg came to 38.9% and the ILS at 200 mg/kg is 36.1%. Further, the ILS at 218 mg/kg in the test with L1210 leukemia (Mus musculus, L1210, 192 h, 218 mg/kg ip daily) turned out to be 67.7%.
Turning to `NC(=NO)c1ccc(O)c(O)c1` [drawing 8], the IC50 on ribonucleotide reductase was 8 µM.
Regarding `NC(=NO)C(O)c1ccc(O)c(O)c1.O` (stereo not shown) [3,4-dihydroxymandelamidoxime, 3,4-dihydroxymandelamidoxime monohydrate], the “initial rate of decrease” value in test [2] worked out at 0.383 units/min. The compound also yielded an ILS at 435 mg/kg in the test with L1210 leukemia (Mus musculus, L1210, 192 h, 435 mg/kg ip daily) of 45.2%. Also, in the test on L1210 leukemia (Mus musculus, L1210, 192 h, 606 mg/kg ip daily), the ILS at 606 mg/kg turned out to be 45.2%.
As for `ON=C(NO)c1cc(O)c(O)c(O)c1` [3,4,5-trihydroxybenzohydroxyamidoxime-HCl], the “initial rate of decrease” value in test [2] is listed as 0.882 units/min. In the test with L1210 leukemia (Mus musculus, L1210, 192 h), this compound registered an ILS at 100 mg/kg of 47.2% and an ILS at 200 mg/kg of 55.6%. The compound further had an ILS at 300 mg/kg in the test with L1210 leukemia (setting [3]) of 63.9%.
Regarding `NC(=NO)c1cc(O)c(O)c(O)c1` [drawing 12], the IC50 at ribonucleotide reductase is 5 µM.
Regarding `N#Cc1ccc(O)c(O)c1O` [2,3,4-trihydroxybenzonitrile], the “% Increase in Survival Time” value in the test with L1210 (50 mg/kg) is listed as 11.0%; in the test on L1210 (100 mg/kg), 26.0%; in the test on L1210 (155 mg/kg) it was 12.1%; with L1210 (259 mg/kg) it was “Toxic”; in the test on L1210 (327 mg/kg) it was “Toxic”.
As for `Cl.NC(=NO)c1cccc(O)c1O` [2,3-dihydroxybenzamidoxime-HCl], in the test on L1210 leukemia (300 mg/kg ip daily), the “% Increase in Survival Time” value is “toxic”.
Consider `NC(=NO)c1cccc(O)c1O`, for which the IC50 at ribonucleotide reductase is 18 µM.
As to `CCOC(=N)c1ccc(O)c(O)c1` [ethyl 3,4-dihydroxybenzamidate-HCl, ethyl 3,4-dihydroxybenzamidate hydrochloride], in test [2], the “initial rate of decrease” value is recorded as 0.706 units/min. For the same compound, the “% Increase in Survival Time” value in the test with L1210 leukemia (218 mg/kg ip daily), in the test on L1210 leukemia (327 mg/kg ip daily) and in the test with L1210 leukemia (435 mg/kg ip daily) was “toxic” each time.
